From patent US8680058B2, “Selectively targeted antimicrobial peptides and the use thereof” (priority 2006, dated 2014)
“Also recorded” adds a separate entry of the source. Like-named read-outs stand apart in the source and are kept apart here. No end group written: not given here.

Experiments:
[1] = system: S. mutans UA159 and comD; experiment: Binding of fluorescently labeled peptides to S. mutans (fluorescence microscopy); set-up: species or system Streptococcus mutans; settings: fluorescently labeled peptide
From the text: To determine whether there was a region within the CSPC16 sequence that was responsible for S. mutans-specific binding, we synthesized a series of fluorescently labeled CSPC16 fragments, and analyzed their ability to bind to S. mutans. The following strategies were utilized in dissecting the CSPC16 sequence (Table 2): First, a series of fragments were constructed by generating deletions of 3 or 4 amino acids, from the N to C terminus, across the CSPC16 sequence (C16-1 to C16-5). Peptides lacking larger portions of the C or N termini of CSPC16 were also synthesized (C16-6 to C16-12). Additionally, peptides with Arg to […] (a positive to negative change in charge) (C16-4) or Phe to Gly substitutions (for a general decrease in hydrophobicity) (C16-3), as well as peptides representing a 4-residue Ala scan of the C16 sequence were constructed (C 16-15 to C16-18). […] These peptides include C16 (SEQ ID NO 1), C16-3 (SEQ ID NO 39), C16-4 (SEQ ID NO 40), C16-5 (SEQ ID NO 41), C16-6 (SEQ ID NO 42), C16-11 (SEQ ID NO 47), C16-12 (SEQ ID NO 5), C16-16 (SEQ ID NO 51), C16-17 (SEQ ID NO 52), and C16-18 (SEQ ID NO 53).
(§1) 1.2 Fluorescent labeling of peptides and fluorescence microscopy. Aliquots of CSPC16 (SEQ ID NO 2), CSP-fragment peptides (Table 2), and C16G2 (SEQ ID NO 4) were labeled with carboxyfluorescein (Sigma) as described previously (Eckert et al., 2006). After peptide cleavage but prior to the bacterial labeling assay, fluorescence intensity per μM peptide was checked fluorimetrically (λex=488 nm, λem=520 nm VersaFluor, BioRad) and found to be relatively similar (data not shown). To evaluate the level of peptide binding to bacteria, streptococci from an overnight culture (OD600 of 0.7-1.0) were washed with phosphate buffered saline (1×PBS), diluted 1:2 into 1×PBS, and exposed to peptide (16 μM) for 5 min at 25° C. After incubation with peptide, unbound agent was removed from the bacteria by three cycles of centrifugation (5 min, 16,000×g) and resuspension in 1×PBS. Labeling of oral streptococci was evaluated using brightfield and fluorescence microscopy (Nikon E400) at a 40× magnification. The digital images utilized for the semi-quantitative binding assessment were acquired with the factory-supplied software (SPOT, Diagnostics).

[2] = system: S. mutans JM11 mixed with S. mitis, S. sobrinus, S. gordonii, S. sanguinis; experiment: Selectivity against multi-species biofilms of oral streptococci; assay type: cell-based
Protocol: Selectivity of STAMPs against multi-species biofilms of oral streptococci. To measure selectivity of STAMPs, mixed biofilms were seeded to 48-well plates. Streptococcus mitis, S. sobrinus, S. gordonii, and S. sanguinis were mixed with S. mutans strain JM11 (spectinomycin resistant) at a 1:1:1:1:10 ratio, total of 10^5 cells/well. Biofilms were grown overnight in TH medium with 1% sucrose, 1% dextrose, and 1% mannose, for 18-24 h. Mature biofilms were treated with PBS plus STAMP as described for the single-species biofilm assay, with the same controls. After treatment, biofilms were washed 2× in PBS and then physically disrupted with a sterile pipette tip in 100 μL PBS per well. Cell suspensions were then serially diluted 10-fold to 10^-6. Diluted suspensions were then plated on TH medium and TH supplemented with spectinomycin, 800 μg/mL. The total amount of biofilm killing (all streptococci) was determined by counting colonies from TH-only plates. Controls: 100% of untreated corresponds to the number of cfu/mL recorded from untreated biofilms, 0% survival was obtained from ethanol sterilized samples. S. mutans killing was determined from quantitating colonies on TH-spectinomycin plates, and combined total cfu/mL, was utilized to calculate the ratio of S. mutans:total population. 1:1 ratio indicates no selectivity.

[3] = system: other oral streptococci; experiment: Binding of fluorescently labeled peptides to other oral streptococci; settings: fluorescently labeled peptide
From the text: as §1

[4] = system: S. mutans; assay type: cell-based, Streptococcus mutans
Protocol: (§2) 1.3 Determination of antimicrobial activity. The general antimicrobial activity of peptides against planktonic bacteria was determined by a MIC assay in TH broth (all oral streptococci) (Qi et al., 2005).
(§3) S. mutans, S. gordonii Challis (DL1), and S. sanguinis NY101 strains were grown in Todd Hewitt (TH, Fisher) broth medium at 37° C. under anaerobic conditions (80% N2, 10% CO2, and 10% H2). S. mutans strains UA159 (Ajdic et al., 2002), ATCC 25175, and T8 (Rogers, 1975), are wild-type clinical isolates, while comD is a knockout mutant that was constructed previously from the wild-type UA140 background (Qi et al., 2005). Luciferase expressing S. mutans strain JM11 was constructed from UA140 as described (Merritt et al., 2005). Exponentially growing bacterial cells were diluted to ˜1×10^5 cfu/mL in TH and placed into 96-well plates (Fisher). Peptides were then serially diluted and added to the bacteria.

[5] = system: S. gordonii; assay type: cell-based, S. gordonii Challis (DL1)
Protocol: as §2, §3

[6] = system: S. sanguinis; assay type: cell-based, S. sanguinis NY101
Protocol: as §2, §3

[7] = system: S. mutans biofilms; experiment: Single-species biofilm regrowth after peptide exposure, S. mutans; assay type: cell-based, Streptococcus mutans; settings: 25 μM peptide, 1 min exposure
Protocol: (§4) 1.5 Examination of antimicrobial activity against single-species biofilms. To initiate biofilm formation, ˜1×10^7 bacteria per well (from overnight cultures) were seeded in TH medium (100 μL) to a 96-well flat-bottom plate. For all streptococci except S. mutans, the medium was supplemented with 0.5% (w/v) mannose and glucose. S. mutans UA159 biofilms were grown with 0.5% (w/v) sucrose. Plates were then centrifuged briefly to pellet the cells, and bacteria were incubated for 3-4 hours at 37° C. for biofilm formation. After incubation, the supernatant was carefully removed and biofilms were treated with 25 μM peptide in 1×PBS or 1×PBS alone for 1 min. The peptide solution was then removed and 100 μL TH was added to further dilute any remaining peptide. To minimize biofilm loss, cells were briefly centrifuged after TH addition, after which the supernatants were removed and fresh medium plus appropriate sugars were returned. Cells were then incubated anaerobically at 37° C. and biofilm growth was monitored over time by measuring absorbance at OD600 with a microplate spectrophotometer (Benchmark Plus, BioRad).

[8] = system: S. gordonii biofilms; experiment: Single-species biofilm regrowth after peptide exposure, S. gordonii; assay type: cell-based; settings: 25 μM peptide, 1 min exposure
Protocol: as §4

[9] = system: S. sanguinis biofilms; experiment: Single-species biofilm regrowth after peptide exposure, S. sanguinis; assay type: cell-based; settings: 25 μM peptide, 1 min exposure
Protocol: as §4

[10] = system: P. aeruginosa; experiment: microbe, parasite or virus in culture; assay type: cell-based, Pseudomonas aeruginosa
Protocol: 2.3 Antimicrobial Activities. The general antimicrobial activities of G10KHc, G10, and tobramycin against clinical isolates of P. aeruginosa were evaluated by minimum inhibitory concentration (MIC) assay as previously described (Eckert et al., 2006) and shown in Table 5. MICs are reported in μM, though for familiarity, 1 μM tobramycin=0.468 μg/mL. P. aeruginosa were grown to log phase and adjusted to ˜1×10^5 cfu/mL in Mueller-Hinton (MH) broth and added to 96-well plates. Two-fold serial dilutions of peptide were then added to bacteria and the plates incubated for 18-24 hours at 37° C. MIC was determined as the concentration of peptide present in the last clear well (no growth). […] In contrast to tobramycin, G10KHc was also effective against aminoglycoside and multiple-antibiotic resistant P. aeruginosa isolated from CF patients (AGR10, MR15). Additionally, as mucoid P. aeruginosa are often associated with reduced susceptibility to antimicrobial agents, we were encouraged to find that G10KHc was active against one such strain, PDO300.

Substance | MIC ([4]; S. mutans UA159) [µM] | MIC ([4]; S. mutans comD) [µM] | MIC [5] [µM] | MIC [6] [µM] | biofilm re-growth after treatment (OD600) [7] | biofilm re-growth after treatment (OD600) [9] | also measured
TFFRL (synthetic competence stimulating peptide (CSP) fragment peptide C16-11 with C-terminal deletion) | – | – | – | – | – | – | binding to S. mutans (in words) [1]: binding but at a weaker intensity than CSPC16
TFFRLFNRSFTQALGKGGGKLFKFLRKHLL (synthetic selectively/specifically targeted antimicrobial peptide (STAMP) chimeric polypeptide C16-BD2.21) | – | – | – | – | – | – | ratio of surviving S. mutans to total Streptococci ([2]; 1:1 ratio indicates no selectivity): 0.075; impact on total cfu/mL population / other oral streptococci (in words) ([2]; multi-species biofilm, 20 min): no impact on the total cfu/mL population
TFFRLFNRSFTQALGK-OH [CSPC16, TFFRLFNRSFTQALGK] | >60 | >60 | >60 | >60 | unaffected | grew similarly to untreated biofilms | binding to S. mutans (in words) [1]: detected as bound; also recorded: could specifically bind to S. mutans; binding to other oral streptococci [3]: not to other oral streptococci; MIC ([4]; S. mutans 25175): >60 µM; MIC ([4]; S. mutans T8): >60 µM; biofilm re-growth after treatment (OD600) [8]: grew similarly to untreated biofilms
TFFRLFNR-OH [CSPM8, TFFRLFNR] | >60 | >60 | >60 | >60 | – | – | binding to other oral streptococci [3]: little or no binding; MIC ([4]; S. mutans 25175): >60 µM; MIC ([4]; S. mutans T8): >60 µM
SGSLSTFFRLFNRSFTQALGK-OH [CSP, reference compound] | 50.8 ± 9.3 | >60 | – | – | unaffected | grew similarly to untreated biofilms | MIC ([4]; S. mutans 25175): >60 µM; MIC ([4]; S. mutans T8): >60 µM; MIC ([5]; S. gordonii): >60 µM; MIC ([6]; S. sanguinis): >60 µM; biofilm re-growth after treatment (OD600) [8]: grew similarly to untreated biofilms
TFFRLFNRGGGKNLRIIRKGIHIIKKY-NH2 [Peptide M8G2] | 3.25 ± 1.9 | 4.0 ± 2.0 | 20 ± 5.0 | 15 ± 2.5 | capable of inhibiting the recovery of S. mutans biofilms | not those of S. sanguinis | MIC ([4]; S. mutans 25175): 3.5 ± 0.5 µM
TFFRLFNRAAAAALGK (synthetic competence stimulating peptide (CSP) fragment peptide C16-17 with 4-residue Ala scan) | – | – | – | – | – | – | binding to S. mutans (in words) [1]: binding but at a weaker intensity than CSPC16
TFFRAAAASFTQALGK (synthetic competence stimulating peptide (CSP) fragment peptide C16-16 with 4-residue Ala scan) | – | – | – | – | – | – | binding to S. mutans (in words) [1]: binding but at a weaker intensity than CSPC16
KNLRIIRKGIHIIKKY-NH2 [Peptide G2, KNLRIIRKGIHIIKKY*] | 12.1 ± 4.5 | 15.3 ± 4.2 | 41.3 ± 14.0 | 33.6 ± 7.5 | unaffected | grew similarly to untreated biofilms | MIC ([4]; S. mutans 25175): 14.8 ± 2.0 µM; MIC ([4]; S. mutans T8): 14.2 ± 1.5 µM; biofilm re-growth after treatment (OD600) [8]: grew similarly to untreated biofilms
KKHRKHRKHRKHGGSGGSKNLRRIIRKGIHIIKKYG [Peptide G10KHc] | – | – | – | – | – | – | MIC range [10]: 0.5 to 29 µM; mean MIC [10]: 6.22 µM
NIFEYFLEGGGKLFKFLRKHLL (synthetic selectively/specifically targeted antimicrobial peptide (STAMP) chimeric polypeptide 1903-BD2.21) | – | – | – | – | – | – | impact on total cfu/mL population / other oral streptococci (in words) ([2]; multi-species biofilm, 20 min): some impact on other oral streptococci; reduction of total population ([2]; multi-species biofilm, 20 min): about 30%
KKHRKHRKHRKH (synthetic targeting peptide Cat-1 domain, KH domain) | – | – | – | – | – | – | antimicrobial activity of targeting domain alone ([10]; data not shown): does not have any antimicrobial activity
TFFRLFTQALGK (synthetic competence stimulating peptide (CSP) fragment peptide C16-3 with internal deletion) | – | – | – | – | – | – | binding to S. mutans (in words) [1]: binding but at a weaker intensity than CSPC16
TRRRLFNRSFTQALGKSGGGFKKFWKWFRRF-OH [Peptide C16-33] | – | – | 14.6 ± 5.0 | 13.3 ± 5.8 | capable of retarding S. mutans biofilm growth | not affected | –
KLFKFLRKHLL-OH [BD2.21, KLFKFLRKHLL] | – | – | – | – | – | – | MIC ([4]; planktonic S. mutans): 5.5 µM
TFFRLFNRSGGGFKKFWKWFRRF-OH [Peptide M8-33] | 2.5 ± 2.0 | 2.5 ± 2.0 | 10 ± 2.5 | 20 ± 2.0 | capable of retarding S. mutans biofilm growth | not affected | –
FKKFWKWFRRF-OH [Peptide S6L3-33, FKKFWKWFRRF] | 7.0 ± 3.0 | 6.5 ± 2.5 | 20 ± 5.0 | 40 ± 7.5 | – | – | –
